The values below come from patent publication US20240360133A1, “FUSED TRICYCLIC COMPOUND, PREPARATION METHOD THEREFOR AND APPLICATION THEREOF IN MEDICINE” (Jiangsu Hengrui Pharmaceuticals Co., Ltd., priority 2020, published 2024).

The structures appear in SMILES notation.

This assay concerns the target T1, human TLR9 (Homo sapiens, UniProt Q9NR96).
T1 construct: host or cells: HEK-Blue hTLR9 (HEK293)
T1 sequence (Q9NR96 26-1032): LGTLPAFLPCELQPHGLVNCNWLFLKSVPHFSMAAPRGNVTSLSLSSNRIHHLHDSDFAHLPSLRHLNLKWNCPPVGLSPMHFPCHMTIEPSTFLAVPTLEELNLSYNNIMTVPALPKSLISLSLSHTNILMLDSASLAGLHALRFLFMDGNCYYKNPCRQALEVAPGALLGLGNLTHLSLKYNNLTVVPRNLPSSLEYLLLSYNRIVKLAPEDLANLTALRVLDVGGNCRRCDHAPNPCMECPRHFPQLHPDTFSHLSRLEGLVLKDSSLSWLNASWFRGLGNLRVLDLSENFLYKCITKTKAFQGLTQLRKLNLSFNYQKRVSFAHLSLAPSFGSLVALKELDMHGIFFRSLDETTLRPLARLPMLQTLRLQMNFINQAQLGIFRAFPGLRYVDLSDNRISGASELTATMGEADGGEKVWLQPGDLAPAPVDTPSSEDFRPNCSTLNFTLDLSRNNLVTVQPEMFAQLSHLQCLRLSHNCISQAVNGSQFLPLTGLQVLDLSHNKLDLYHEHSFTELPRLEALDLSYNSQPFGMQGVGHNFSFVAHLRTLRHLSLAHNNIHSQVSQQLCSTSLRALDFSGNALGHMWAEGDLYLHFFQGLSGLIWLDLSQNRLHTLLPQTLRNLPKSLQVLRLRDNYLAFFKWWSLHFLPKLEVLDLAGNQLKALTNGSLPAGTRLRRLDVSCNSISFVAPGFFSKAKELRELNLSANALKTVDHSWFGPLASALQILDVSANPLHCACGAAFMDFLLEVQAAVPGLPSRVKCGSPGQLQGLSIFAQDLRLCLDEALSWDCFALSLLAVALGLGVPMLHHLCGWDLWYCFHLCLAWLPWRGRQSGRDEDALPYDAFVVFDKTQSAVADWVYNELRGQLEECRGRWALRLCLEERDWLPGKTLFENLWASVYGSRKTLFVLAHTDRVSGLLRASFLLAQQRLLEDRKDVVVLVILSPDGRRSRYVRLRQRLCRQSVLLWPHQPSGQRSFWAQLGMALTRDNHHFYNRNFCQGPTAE
The experiment in a line: Inhibitory effect on human TLR9 activation pathway (HEK-Blue hTLR9 SEAP reporter). Particulars: HEK-Blue hTLR9 cells, 1 μM CpG ODN2006, 20 h, SEAP OD620. The format is cell-based. How it is done: • 1. HEK-Blue™ hTLR9 cell (Invivogen) • 2. CpG ODN2006 (Invivogen) • 3. Alkaline phosphatase detection medium (Quanti-Blue Detection. Invivogen) • 4. Blasticidin (Invivogen) • 5. Zeocin (Invivogen) • 6. Normocin (Invivogen) • 7. DMEM/HIGH Glucose (GE Healthcare) • 8. Fetal bovine serum (FBS, Gibco) • 9. Phosphate-buffered saline (Shanghai BasalMedia Technologies Co., Ltd.) • 10. Sterile purified water (made in-house by Shanghai Hengrui) • 11. 15 mL centrifuge tube (Corning) • 12. 96-well formulating plate (Corning) • 13. 96-well fat-bottom cell culture plate (Corning) • 14. Constant-temperature cell incubator (Thermo scientific) • 15. Constant-temperature incubator (Shanghai Yiheng Scientific Instruments Co., Ltd.) • 16. PHERAstar FS microplate reader (BMG Labtech)
HEK-Blue™ hTLR9 cells were purchased from Invivogen. These cells are HEK293 cells transfected with the human Toll-like receptor 9 (TLR9) gene and the secreted alkaline phosphatase reporter gene (SEAP). The alkaline phosphatase reporter gene (SEAP) is under the regulation of the IFN-β minimal promoter comprising 5 NF-kB and AP-1 binding sites. Upon activation of TLR9 with an agonist, SEAP secretion is induced via downstream NF-kB and AP-1. Ater addition of an antagonist compound, the pathway described above is inhibited, and SEAP secretion is reduced. The activity of the compounds for the TLR9 pathway was evaluated by measuring OD620 through the SEAP substrate.
20 mM test compounds dissolved in 100% DMSO were serially diluted with 100% DMSO to 2000, 400, 80, 16, 3.2, 0.64, 0.128, 0.0256 IM, with blank wells containing 100% DMSO. […] The cells were cultured at 37° C. for 1-2 min, dispersed by pipetting, transferred to a 15 mL centrifuge tube, and counted, and the cell density was adjusted to 4.8×10^5/mL with the DMEM/HIGH glucose medium containing 10% inactivated FBS. […] Then the OD620 absorbance readings were taken on a microplate reader. The inhibition rate was calculated using the following formula: […]
Broadly, the IC50 is the concentration at which inhibition is half-maximal. Lower therefore signals inhibition by little substance. In turn, `Cc1cc(-c2[nH]c3cc4c(nc3c2C(C)C)CN(Cc2ccc(N3CCNCC3)cn2)CC4)cc(C)n1` [Example 5, 2-(2,6-Dimethylpyridin-4-yl)-3-isopropyl-6-((5-(piperazin-1-yl)pyridin-2-yl)methyl)-5,6,7,8-tetrahydro-1H-pyrrolo[3,2-b][1,7]naphthyridine] returned an IC50 of 87 nM.
In turn, `Cc1cc(-c2[nH]c3cc4c(nc3c2C(C)C)CN(CCc2ccc(N3CCNCC3)nc2)CC4)cc(C)n1` [Example 4, 2-(2,6-Dimethylpyridin-4-yl)-3-isopropyl-6-(2-(6-(piperazin-4-yl)pyridin-3-yl)ethyl)-5,6,7,8-tetrahydro-1H-pyrrolo[3,2-b][1,7]naphthyridine] returned an IC50 of 74 nM.
The figure for `Cc1cc(-c2[nH]c3cc4c(nc3c2C(C)C)CN(CC23CCC(N)(CC2)CC3)CC4)cc(C)n1` [Example 7, 4-((2-(2,6-Dimethylpyridin-4-yl)-3-isopropyl-1,5,7,8-tetrahydro-6H-pyrrolo[3,2-b][1,7]naphthyridin-6-yl)methyl)bicyclo[2.2.2]octyl-1-amine] is 90 nM.
